The values that follow come from the supplement of paper PMC10307832.

Common to all, as to assay: relative viability (nuclei count vs DMSO), 5 days (fraction); higher = more cells survive
Compound in the test “Adavosertib + Linsitinib”: C=CCn1c(=O)c2cnc(Nc3ccc(N4CCN(C)CC4)cc3)nc2n1-c1cccc(C(C)(C)O)n1 [Adavosertib] + C[C@]1(O)C[C@@H](c2nc(-c3ccc4ccc(-c5ccccc5)nc4c3)c3c(N)nccn32)C1 [Linsitinib] (partner 1 µM)
The method in brief:
(§1)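 For relative viability, nuclei counts in treated wells were divided by those in vehicle wells. Lung cancer cell lines had been pin-tool dosed in 1536-well plates the day after seeding and cultured for 5 days, then fixed and stained in one step (final 0.05% Triton X-100, 1% formaldehyde, 1 ug/ml Hoechst) and imaged at 4×. Doses were one drug alone or a fixed anchor-drug dose plus five library-drug doses (not always all listed) in √10 steps, and values are duplicate-plate medians.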

Compound in the test “Adavosertib + Pictilisib”: C=CCn1c(=O)c2cnc(Nc3ccc(N4CCN(C)CC4)cc3)nc2n1-c1cccc(C(C)(C)O)n1 [Adavosertib] + CS(=O)(=O)N1CCN(Cc2cc3nc(-c4cccc5[nH]ncc45)nc(N4CCOCC4)c3s2)CC1 [Pictilisib] (partner 1 µM)
The method, boiled down: as §1

Compound in the test “Adavosertib + Tozasertib”: C=CCn1c(=O)c2cnc(Nc3ccc(N4CCN(C)CC4)cc3)nc2n1-c1cccc(C(C)(C)O)n1 [Adavosertib] + Cc1cc(Nc2cc(N3CCN(C)CC3)nc(Sc3ccc(NC(=O)C4CC4)cc3)n2)n[nH]1 [Tozasertib] (partner 0.1 µM)
The method, boiled down: as §1

Compound in the test “Adavosertib + OSI-027”: C=CCn1c(=O)c2cnc(Nc3ccc(N4CCN(C)CC4)cc3)nc2n1-c1cccc(C(C)(C)O)n1 [Adavosertib] + COc1cccc2cc(-c3nc([C@H]4CC[C@H](C(=O)O)CC4)n4ncnc(N)c34)[nH]c12 [OSI-027] (partner 0.5 µM)
The method, boiled down: as §1

Compound in the test “Adavosertib + Crizotinib”: C=CCn1c(=O)c2cnc(Nc3ccc(N4CCN(C)CC4)cc3)nc2n1-c1cccc(C(C)(C)O)n1 [Adavosertib] + C[C@@H](Oc1cc(-c2cnn(C3CCNCC3)c2)cnc1N)c1c(Cl)ccc(F)c1Cl [Crizotinib] (partner 1 µM)
The method, boiled down:
as §1

For the cell line NCI-H838, the relative viability turned out to be 1.01 with Adavosertib + Linsitinib (first compound 0.01 µM); 1.05 with Adavosertib + Linsitinib (first compound 0.03162 µM); 1 with Adavosertib + Linsitinib (first compound 0.1 µM); 1.09 with Adavosertib + Linsitinib (first compound 0.3162 µM); 0.446 in the test with Adavosertib + Pictilisib (first compound 0.01 µM); 0.411 in the test with Adavosertib + Pictilisib (first compound 0.03162 µM). The relative viability amounted to 0.449 with Adavosertib + Pictilisib (first compound 0.1 µM); 0.485 in the test with Adavosertib + Pictilisib (first compound 0.3162 µM); 0.237 in the test with Adavosertib + Tozasertib (first compound 0.01 µM); 0.268 with Adavosertib + Tozasertib (first compound 0.03162 µM); 0.328 with Adavosertib + Tozasertib (first compound 0.1 µM); 0.283 in the test with Adavosertib + Tozasertib (first compound 0.3162 µM). The relative viability in the test with Adavosertib + OSI-027 (first compound 0.01 µM) turned out to be 0.425; in the test with Adavosertib + OSI-027 (first compound 0.03162 µM) it was 0.346; with Adavosertib + OSI-027 (first compound 0.1 µM) it was 0.391; in the test with Adavosertib + OSI-027 (first compound 0.3162 µM) it was 0.388; with Adavosertib + Crizotinib (first compound 0.01 µM) it was 0.872; in the test with Adavosertib + Crizotinib (first compound 0.03162 µM), 0.847. The relative viability came to 0.82 with Adavosertib + Crizotinib (first compound 0.1 µM) and 0.77 with Adavosertib + Crizotinib (first compound 0.3162 µM).
For the cell line NCI-H460, the relative viability with Adavosertib + Linsitinib (first compound 0.01 µM) was 0.971; with Adavosertib + Linsitinib (first compound 0.03162 µM), 0.777; in the test with Adavosertib + Linsitinib (first compound 0.1 µM), 0.594; in the test with Adavosertib + Linsitinib (first compound 0.3162 µM), 0.285; in the test with Adavosertib + Pictilisib (first compound 0.01 µM) it was 0.315; with Adavosertib + Pictilisib (first compound 0.03162 µM) it was 0.355. The relative viability amounted to 0.289 in the test with Adavosertib + Pictilisib (first compound 0.1 µM); 0.417 in the test with Adavosertib + Pictilisib (first compound 0.3162 µM); 0.533 with Adavosertib + Tozasertib (first compound 0.01 µM); 0.495 with Adavosertib + Tozasertib (first compound 0.03162 µM); 0.534 with Adavosertib + Tozasertib (first compound 0.1 µM); 0.721 in the test with Adavosertib + Tozasertib (first compound 0.3162 µM). Moreover, the relative viability with Adavosertib + OSI-027 (first compound 0.01 µM) was 0.758; with Adavosertib + OSI-027 (first compound 0.03162 µM), 0.667; with Adavosertib + OSI-027 (first compound 0.1 µM), 0.561; with Adavosertib + OSI-027 (first compound 0.3162 µM) it was 0.341; with Adavosertib + Crizotinib (first compound 0.01 µM) it was 0.929; with Adavosertib + Crizotinib (first compound 0.03162 µM) it was 0.822. Also, the relative viability worked out at 1.11 with Adavosertib + Crizotinib (first compound 0.1 µM) and 0.627 with Adavosertib + Crizotinib (first compound 0.3162 µM).
As for PC-14, the relative viability with Adavosertib + Linsitinib (first compound 0.01 µM) was determined as 0.915; in the test with Adavosertib + Linsitinib (first compound 0.03162 µM), 0.957; with Adavosertib + Linsitinib (first compound 0.1 µM), 0.942; with Adavosertib + Linsitinib (first compound 0.3162 µM), 0.575; in the test with Adavosertib + Pictilisib (first compound 0.01 µM) it was 0.72; with Adavosertib + Pictilisib (first compound 0.03162 µM), 0.64. For the same cell line, the relative viability was determined as 0.569 in the test with Adavosertib + Pictilisib (first compound 0.1 µM); 0.272 with Adavosertib + Pictilisib (first compound 0.3162 µM); 0.6 with Adavosertib + Tozasertib (first compound 0.01 µM); 0.566 in the test with Adavosertib + Tozasertib (first compound 0.03162 µM); 0.843 with Adavosertib + Tozasertib (first compound 0.1 µM); 0.69 with Adavosertib + Tozasertib (first compound 0.3162 µM). Moreover, the relative viability with Adavosertib + OSI-027 (first compound 0.01 µM) was 0.916; with Adavosertib + OSI-027 (first compound 0.03162 µM) it was 0.835; with Adavosertib + OSI-027 (first compound 0.1 µM), 0.846; with Adavosertib + OSI-027 (first compound 0.3162 µM) it was 0.114; with Adavosertib + Crizotinib (first compound 0.01 µM) it was 0.91; with Adavosertib + Crizotinib (first compound 0.03162 µM) it was 1.02. Moreover, the results for the relative viability with Adavosertib + Crizotinib (first compound 0.1 µM) and in the test with Adavosertib + Crizotinib (first compound 0.3162 µM) were 1.02 and 0.646, respectively.
As for LXF-289, the relative viability turned out to be 0.936 with Adavosertib + Linsitinib (first compound 0.01 µM); 0.97 in the test with Adavosertib + Linsitinib (first compound 0.03162 µM); 0.944 with Adavosertib + Linsitinib (first compound 0.1 µM); 1.02 in the test with Adavosertib + Linsitinib (first compound 0.3162 µM); 0.786 with Adavosertib + Pictilisib (first compound 0.01 µM); 0.746 in the test with Adavosertib + Pictilisib (first compound 0.03162 µM). Further, the relative viability with Adavosertib + Pictilisib (first compound 0.1 µM) is 0.782; in the test with Adavosertib + Pictilisib (first compound 0.3162 µM), 0.788; with Adavosertib + Tozasertib (first compound 0.01 µM), 0.174; with Adavosertib + Tozasertib (first compound 0.03162 µM), 0.192; with Adavosertib + Tozasertib (first compound 0.1 µM) it was 0.205; with Adavosertib + Tozasertib (first compound 0.3162 µM), 0.261. Besides, the relative viability in the test with Adavosertib + OSI-027 (first compound 0.01 µM) is 0.809; with Adavosertib + OSI-027 (first compound 0.03162 µM), 0.678; with Adavosertib + OSI-027 (first compound 0.1 µM), 0.721; with Adavosertib + OSI-027 (first compound 0.3162 µM) it was 0.938; with Adavosertib + Crizotinib (first compound 0.01 µM), 0.8; in the test with Adavosertib + Crizotinib (first compound 0.03162 µM), 0.841. For the same cell line, the relative viability with Adavosertib + Crizotinib (first compound 0.1 µM) was determined as 0.88; with Adavosertib + Crizotinib (first compound 0.3162 µM), 0.849.
UMC-11: the relative viability with Adavosertib + Linsitinib (first compound 0.01 µM) came out at 0.959; in the test with Adavosertib + Linsitinib (first compound 0.03162 µM), 0.99; in the test with Adavosertib + Linsitinib (first compound 0.1 µM), 1.19; with Adavosertib + Linsitinib (first compound 0.3162 µM), 1.02; with Adavosertib + Pictilisib (first compound 0.01 µM) it was 0.817; with Adavosertib + Pictilisib (first compound 0.03162 µM), 0.723. Moreover, the relative viability with Adavosertib + Pictilisib (first compound 0.1 µM) amounted to 0.743; with Adavosertib + Pictilisib (first compound 0.3162 µM) it was 0.755; with Adavosertib + Tozasertib (first compound 0.01 µM), 0.19; in the test with Adavosertib + Tozasertib (first compound 0.03162 µM) it was 0.201; with Adavosertib + Tozasertib (first compound 0.1 µM) it was 0.196; with Adavosertib + Tozasertib (first compound 0.3162 µM), 0.181. For the same cell line, the relative viability with Adavosertib + OSI-027 (first compound 0.01 µM) worked out at 0.48; in the test with Adavosertib + OSI-027 (first compound 0.03162 µM), 0.442; with Adavosertib + OSI-027 (first compound 0.1 µM), 0.432; in the test with Adavosertib + OSI-027 (first compound 0.3162 µM), 0.444; in the test with Adavosertib + Crizotinib (first compound 0.01 µM), 0.63; in the test with Adavosertib + Crizotinib (first compound 0.03162 µM), 0.588. The relative viability in the test with Adavosertib + Crizotinib (first compound 0.1 µM) turned out to be 0.739; with Adavosertib + Crizotinib (first compound 0.3162 µM), 0.623.
